Values quoted from earlier work in patent US20220088150A1, “Octreotide Microsphere-Based Arterial Embolization for Treating Obesity” (Biovena Science, LLC, priority 2018, published 2022).

Assays:
[1] = subcutaneously 5-15 μg/kg/day, six months, compared with placebo
insulin hypersecretion = conditions: six months, 5-15 μg/kg/day
ghrelin secretion = conditions: continuous infusion, dose- and time-dependent

For `C[C@@H](O)[C@@H]1NC(=O)[C@H](CCCCN)NC(=O)[C@@H](Cc2c[nH]c3ccccc23)NC(=O)[C@H](Cc2ccccc2)NC(=O)[C@@H](NC(=O)[C@H](N)Cc2ccccc2)CSSC[C@@H](C(=O)N[C@H](CO)[C@@H](C)O)NC1=O` [octreotide, D-phenylalanyl-L-cysteinyl-L-phenylalanyl-D-tryptophyl-L-lysyl-L-threonyl-L-cysteinyl-L-threoninol (2→7)-disulfide], the splanchnic blood flow (healthy human subjects) is given as “reduces splanchnic blood flow”, the gastric emptying (human, in vivo) is given as “delays gastric emptying” and the “weight and BMI” value [1] is given as “effective in stabilizing weight and BMI”. The calorie intake decrease (insulin hypersecretion) was “approximately 700 kcal/day”, the BMI (insulin hypersecretion; vs pre-study observation period, p=0.0001) was “BMI decrease” and the weight loss (insulin hypersecretion; vs six-month pre-study observation period, p=0.04) was “greater weight loss”. For the same molecule, the ghrelin secretion (ghrelin secretion) was “suppresses ghrelin secretion”.
